Data taken from US20260345654A1, “2,8-DIHYDROXYQUINOLINE GLUCURONIDE DERIVATIVES WITH ENHANCED PROPERTIES FOR USE AS ANTICANCER, ANTIVIRAL, ANTIMICROBIAL, AND OTHER THERAPEUTIC APPLICATIONS” (priority 2023, published 2026).
“Also recorded” adds a separate entry of the source. Like-named read-outs stand apart in the source and are kept apart here.

Legend:
DU-145 cells = assay: In vitro anti-proliferation (CellTiter-Glo, 72 hr), DU-145; format: cell-based, human
Experimental: (§1) Commercially available 8HQ and freshly synthesized G2-8HQ were prepared for in vitro anti-proliferative studies against the following cell lines with and without the presence of 10 μM Cu(+2): (1) A549: […]; (2) BT-549: epithelial cells from ductal tumor; (3) DU-145: human prostate cancer; (4) PANC-1: pancreatic cancer; (5) SU.86.86: a new adoptive pancreatic cell for immunotherapy studies; (6) RL: non-Hodgkin's lymphoma; (7) LnCAP, Prostate cancer cell line; (8) A431, a squamous cell carcinoma line; and (9) UACC-62 a malignant melanoma cell line.
(§2) With regard to the study protocol used, the objective was to conduct a study of the cytotoxicity of W1469 against several cancer cell lines. In the study protocol, preparations for the A549 (Lung) cell line screen are given as an example. The following materials were used: (1) FBS (2) RPMI-1640 medium supplemented with 10% FBS:’ and (3) A549 Cells. The four samples tested are referred to as Items 1-4 below and were placed at 4 °C upon arrival. These four samples were as follows: • Item 1: Tube A (W1469) (500 uM when FBS added) • Item 2: Tube B (W1469g) (1000 uM when FBS added) • Item 3: Tube C (W1469) • Item 4: Tube D (W1469g)
(§3) Add 50 μL of above 2× stocks to appropriate wells to expose appropriate cells to the final dilutions of samples. Add 50 μL media to media and cell control wells and 50 μL media mix to vehicle control wells. Cells are exposed for 72 hr. Following a 72 hr exposure to Sample, perform a CTG assay on all remaining plates.
(§4) At the end of the 72 hr exposure period, remove plates for CellTiter-Glo assay from 37 °C, 5% CO2 incubator and place on the bench at room temperature for 30 mins. Add 100 μL CellTiter-Glo reagent, mix for 2 mins, followed by a further 10 min incubation at room temperature. Record luminescence. Tables showing the resulting plate layouts are included below/

SU.86.86 cells = assay: In vitro anti-proliferation (CellTiter-Glo, 72 hr), SU.86.86; format: cell-based
Experimental: as §1, §2, §3, §4

cancer cell lines = assay: Anti-proliferative activity against cancer cell lines (overall statements); format: cell-based
Experimental: as §1, §2, §3, §4

Chemical stability = format: physicochemical
Complexation of copper = format: physicochemical
basal cell carcinoma = assay: Single patient clinical study, topical W1469, basal cell carcinoma; format: in vivo, human
Description: • Indication: Basil Cell Carcinoma • Rationale: Basil Cell Carcinoma is the most common form of skin cancer with 3.6 Million cases diagnosed each year and rising. It is estimated that 80% of all newly diagnosed skin cancers are BCC. Although rarely fatal, it can be painful and disfiguring and, in some cases, become dangerously invasive. The most common forms of treatment include surgery, radiation treatment, immunotherapy, systemic and topical chemotherapy, and other variations including laser therapy. The currently approved topical treatments for BCC are usually only recommended for more superficial tumors and more extensive monitoring is required because they are generally not effective in destroying cancer cell deeper below the surface. A more complete description of treatment options and their relative effectiveness has been described by the American Cancer Society. […] And if necessary, on a continuing ongoing basis.
The examined treatment approach studied here falls in the category of a topical chemotherapeutic. W1469 is a novel small molecule anti-cancer drug candidate which contains a tumor targeting functional group and has been shown effective against a variety of cancers in vitro. (most recently including squamous cell carcinoma)
(§5) Topical gel containing 0.5 mg/ml W1469 in proprietary aqueous alcohol gel, applied initially once daily using a suitable topical applicator.
(§6) In general, the Treatment/Patient protocol used for the patient testing was as follows: • 1. Photograph the application site prior to starting the protocol. Note any changes in lesion size, color, etc. of treatment area. • 2. Remove a loaded syringe from the freezer, dry ice or refrigerator and allow to gradually warm to room temperature. • 3. Photograph the syringe each time prior to application. Note the color of the gel contained in the syringe. • 4. Lightly clean the skin surface with alcohol wipe. • 5. […] Let the liquid from the gel absorb into the site without disturbing. Apply once a day at the same time. • 6. Re-cap the syringe and store in the refrigerator until completely used. • 7. Repeat 1-6 each daily during application period. It is noted in this protocol that photographing the syringe used with each application period accomplishes two things.
• 1. Toleration/toxicity • 2. Application methodology • 3. Any visual indications of efficacy • 4. Patient feedback Study Duration: Varied case by case. Generally, two weeks to two months
A person with extensive basil cell carcinoma lesions on both sides of the face, forehead and ear. Note: the clinical study involving Individual 1, due to limitations in available material, at the time was performed with very low concentrations of W1469 and the patient was instructed to use only on the nose area and under the area of the left cheek. The treatment was thus self-administered. A photo of the individual before treatment is included in FIG. 23. Patient condition was monitored and photographed regularly during the treatment period.
Self-administered, variable treatment protocol, drug concentrations and vehicle carrier. […] The lesion was tender to palpation especially to the center and the area around the lesion was with hyperpigmentation. […] No necrotic or hyperkeratotic areas were noted. […] Therapy was reintroduced on a three times-daily dosing schedule and with ethanol-based carrier molecule. […] The centralized portion of the lesion slowly healed over the next 5-day period. Continued healing of the centralized portion of the lesion during the 5-day period status post central necrotic tissue extrusion was shown. During this period the lesion began to flatten, the area became pain free, and localized tissue became less erythematic. A bloody clot in central area resolved and crater size decreased.

[1] = system: ulcerative lesion to mid forehead; assay: Case study, topical W1469, ulcerative lesion (Individual 3); format: in vivo, human; conditions: Individual 3, twice daily, after one week
Experimental: as §5, §6
Physician administered, variable treatment protocol, drug concentrations and vehicle carrier. A person with ulcerative lesion to mid forehead approximately 3 mm×4 mm. […]. Non painful and without exudate. Therapy applied on a twice daily dosing schedule.

[2] = 1 and 0.5 μM, presence of Cu^+2 ions, wide standard deviation
[3] = +Cu (10 μM), 72 hr, G2-8HQ values based on MW of apo form (337), read-out: IC50
[4] = complexed with Cu, multiplied by 337/776=0.43, column 3 duplicate of column 2, listed as W1469, read-out: IC50 (adjusted to MW of copper complex)
[5] = Individual 1, three week period, topical
[6] = Individual 2, after first week of treatment

Question: For `O=C(O)[C@H]1O[C@@H](Oc2ccc3cccc(O)c3n2)[C@H](O)[C@@H](O)[C@@H]1O` [G2-8HQ, 8-Hydroxy-2-quinolinyl beta-D-glucopyranosiduronic acid], which cytotoxicity (DU-145 cells; [2]) is on record?
Answer: in some percentage of the screens all the cancer cells were killed at these concentrations

Question: What about the IC50 (DU-145 cells; [3]) of the same compound?
Answer: 8.7 µM

Question: What about the IC50 (DU-145 cells; Homo sapiens, DU-145, 72 h, +Cu (10 μM), 72 hr, G2-8HQ values based on MW of apo form (337), read-out: IC50) of the same compound?
Answer: 7.3 µM

Question: What about the IC50 (DU-145 cells; Homo sapiens, DU-145, 72 h, −Cu, 72 hr, read-out: IC50) of the same compound?
Answer: > 500 µM

Question: What about the IC50 (DU-145 cells; Homo sapiens, DU-145, complexed with Cu, multiplied by 337/776=0.43, column 3 duplicate of column 2, read-out: IC50 (adjusted to MW of copper complex)) of the same compound?
Answer: 3.1 µM

Question: And the IC50 (DU-145 cells; [4])?
Answer: 3.7 µM

Question: And the cytotoxicity (SU.86.86 cells; [2])?
Answer: in a percentage of cases, all of the cancer cells were killed at concentrations between at 1 and 0.5 μM; also recorded: in some % of the screens all the cancer cells were killed at these concentrations

Question: What about the IC50 (SU.86.86 cells; [3]) of the same compound?
Answer: 13 µM

Question: What about the IC50 (SU.86.86 cells; Homo sapiens, SU.86.86, 72 h, +Cu (10 μM), 72 hr, G2-8HQ values based on MW of apo form (337), read-out: IC50) of the same compound?
Answer: 10 µM

Question: And the IC50 (SU.86.86 cells; Homo sapiens, SU.86.86, 72 h, −Cu, 72 hr, read-out: IC50)?
Answer: > 500 µM

Question: What about the IC50 (SU.86.86 cells; Homo sapiens, SU.86.86, complexed with Cu, multiplied by 337/776=0.43, column 3 duplicate of column 2, read-out: IC50 (adjusted to MW of copper complex)) of the same compound?
Answer: 4.3 µM

Question: What about the IC50 (SU.86.86 cells; [4]) of the same compound?
Answer: 5.6 µM

Question: What about the cytotoxicity (cancer cell lines; absence of copper) of the same compound?
Answer: absence of cytotoxicity (no measurable IC50 in standard drug concentration ranges)

Question: And the anticancer activity (cancer cell lines; all cell lines tested)?
Answer: powerful anticancer activity against all cell lines tested

Question: And the “Active w/o Cu (cancer)” value (cancer cell lines; comparison Table 5)?
Answer: No

Question: What about the IC50 (cancer cell lines; without copper, six of the nine carcinoma cell lines) of the same compound?
Answer: > 500 µM

Question: And the stability (Chemical stability; aqueous solutions, pH values lower than 8, or over time in organic solvents)?
Answer: less stable

Question: What about the stability (Chemical stability; dissolving in DMSO (without copper)) of the same compound?
Answer: yields over time the precipitated degradation product of the keto form of 2-8HQ

Question: What about the stability (Chemical stability; neutral or physiological pH in the plasma) of the same compound?
Answer: chemically stable

Question: And the stability (Chemical stability; pH of 5)?
Answer: degrade the compound almost immediately

Question: What about the Complexes w/copper (Complexation of copper; comparison Table 5) of the same compound?
Answer: Yes

Question: And the copper complexation (Complexation of copper; water or PBS (at neutral pH), without suitable excipient)?
Answer: will not readily complex Cu^+2

Question: What about the “patient's condition” value (basal cell carcinoma; [5]) of the same compound?
Answer: significant amelioration of the patient's condition

Question: What about the “scarring or other disfigurement” value (basal cell carcinoma; [5]) of the same compound?
Answer: did not result in scarring or other disfigurement

Question: And the “patient's condition” value (basal cell carcinoma; Individual 2, after 7 days of treatment (FIG. 26))?
Answer: significant amelioration of the patient's condition

Question: And the hyperpigmentation (basal cell carcinoma; [6])?
Answer: hyperpigmentation is markedly reduced

Question: What about the lesion response (basal cell carcinoma; [6]) of the same compound?
Answer: marked improvement in the lesion was obtained with almost complete resolution

Question: What about the pain (basal cell carcinoma; [6]) of the same compound?
Answer: Area is pain free

Question: What about the recurrence (basal cell carcinoma; Individual 2, one month following the treatment) of the same compound?
Answer: another lesion returned to the patient's right cheek

Question: What about the lesion hyperkeratosis (basal cell carcinoma; Individual 2, second lesion) of the same compound?
Answer: marked reduction in lesion hyperkeratosis

Question: What about the centralized necrotic core (basal cell carcinoma; Individual 2, second lesion, after two days) of the same compound?
Answer: the centralized necrotic core came out of the lesion

Question: And the lesion size (basal cell carcinoma; Individual 2, second lesion, three times daily, ethanol-based carrier)?
Answer: lesion size markedly decreased

Question: And the “erythema, exudate, or hyperkeratosis” value [1]?
Answer: No erythema, exudate, or hyperkeratosis noted

Question: What about the ulcerative lesion [1] of the same compound?
Answer: resolution of ulcerative lesion
